In US5580871A, “4-Heteroaryl- 1,4-dihydropyridine compounds with calcium agonist and alpha1 -antagonist activity” (The Dupont Merck Pharmaceutical Company, priority 1995, dated 1996):

Columns and labels:
alpha1-adrenoceptor = assay: [3H]-Prazosin binding assay (affinity for alpha1-adrenoceptors); conditions: partially purified rat brain membranes; 0.2 nM [3H]-prazosin, 60 min, 25° C.
Experimental: The [^3 H]-prazosin binding assay was carried out according to the method described by Timmermans, P. B. M. W. M., Schoop, A. M. C., and Van Zwieten, P. A., Biochem. Pharmacol., 31, 899-905, (1982). The reaction mixture contained partially purified rat brain membranes (source of alpha1 -adrenoceptors), 0.2 nM [^3 H]-prazosin with or without potential displacer in Tris buffer. The mixture was incubated for 60 minutes at 25° C. and subsequently terminated by rapid filtration through glass fiber-filter. Receptor-bound [^3 H]-prazosin trapped in the filter was quantitated by scintillation counting. The inhibitory concentration (IC50) of potential displacer which gives 50% displacement of the total specifically bound [^3 H]-prazosin is presented as a measure of the affinity of such compound for the alpha1 -adrenoceptor.

Ca^2+ channel = target: T1, Ca^2+ channel (Rattus norvegicus, UniProt P22002); assay: [3H]-Nitrendipine binding assay (affinity for calcium channels); conditions: rat cardiac microsomes; 0.5 nM [3H]-nitrendipine, 60 min, 25° C.
T1 construct: rat cardiac microsomes (source of Ca^2+ channels); from tissue; host or cells: rat cardiac microsomes
Experimental: [^3 H]-Nitrendipine binding assay was carried out according to the method described by G. T. Bolger, et al., Biochem. Biophys. Res. Comm., 104, 1604-1609, (1982). The reaction mixture contained rat cardiac microsomes (source of Ca^2+ channels), 0.5 nM [^3 H]-nitrendipine with or without potential displacer in Tris buffer. The mixture was incubated for 60 minutes at 25° C. and subsequently terminated by rapid filtration through a glass fiber-filter. Membrane-bound [^3 H]-nitrendipine trapped in the filter was quantitated by scintillation counting. The inhibitory concentration (IC50) of potential displacer which gives 50% displacement of the total specifically bound [^3 H]-nitrendipine is presented as a measure of the affinity of such compound for the Ca^2+ channel.

guinea pig left atria = assay: Positive inotropic effect in guinea pig left atria; conditions: Cavia porcellus; for EC50: concentration that increases developed tension (DT) by 50% above the control DT, left atria paced at 2 Hz, 37° C.; for Emax: ratio of the maximum effect of the test compound to that of Bay K8644, read-out: Intrinsic Activity
Experimental: Guinea pigs are killed by cervical dislocation. The left atria are removed and mounted at 1 gm resting tension in tissue baths containing oxygenated Krebs bicarbonate solution which is kept at 37° C. The left atria are electrically paced at 2 Hz with square wave pulses of 1 msec duration. The voltage is set at 1.5×threshold level.
After a one hour equilibration period, control values for developed tension (DT, gm) are recorded. Test compounds are then added to the baths, in a cumulative manner to a maximum concentration of 10^-4, to obtain a concentration-response curve. Treatment values of DT are obtained after the drug effect has reached a plateau and the exposure time for each concentration is 5-8 minutes. Percent change of the treatment value from the control value is calculated at each concentration of the test compound.

T1 sequence (P22002 whole entry, other chains not shown): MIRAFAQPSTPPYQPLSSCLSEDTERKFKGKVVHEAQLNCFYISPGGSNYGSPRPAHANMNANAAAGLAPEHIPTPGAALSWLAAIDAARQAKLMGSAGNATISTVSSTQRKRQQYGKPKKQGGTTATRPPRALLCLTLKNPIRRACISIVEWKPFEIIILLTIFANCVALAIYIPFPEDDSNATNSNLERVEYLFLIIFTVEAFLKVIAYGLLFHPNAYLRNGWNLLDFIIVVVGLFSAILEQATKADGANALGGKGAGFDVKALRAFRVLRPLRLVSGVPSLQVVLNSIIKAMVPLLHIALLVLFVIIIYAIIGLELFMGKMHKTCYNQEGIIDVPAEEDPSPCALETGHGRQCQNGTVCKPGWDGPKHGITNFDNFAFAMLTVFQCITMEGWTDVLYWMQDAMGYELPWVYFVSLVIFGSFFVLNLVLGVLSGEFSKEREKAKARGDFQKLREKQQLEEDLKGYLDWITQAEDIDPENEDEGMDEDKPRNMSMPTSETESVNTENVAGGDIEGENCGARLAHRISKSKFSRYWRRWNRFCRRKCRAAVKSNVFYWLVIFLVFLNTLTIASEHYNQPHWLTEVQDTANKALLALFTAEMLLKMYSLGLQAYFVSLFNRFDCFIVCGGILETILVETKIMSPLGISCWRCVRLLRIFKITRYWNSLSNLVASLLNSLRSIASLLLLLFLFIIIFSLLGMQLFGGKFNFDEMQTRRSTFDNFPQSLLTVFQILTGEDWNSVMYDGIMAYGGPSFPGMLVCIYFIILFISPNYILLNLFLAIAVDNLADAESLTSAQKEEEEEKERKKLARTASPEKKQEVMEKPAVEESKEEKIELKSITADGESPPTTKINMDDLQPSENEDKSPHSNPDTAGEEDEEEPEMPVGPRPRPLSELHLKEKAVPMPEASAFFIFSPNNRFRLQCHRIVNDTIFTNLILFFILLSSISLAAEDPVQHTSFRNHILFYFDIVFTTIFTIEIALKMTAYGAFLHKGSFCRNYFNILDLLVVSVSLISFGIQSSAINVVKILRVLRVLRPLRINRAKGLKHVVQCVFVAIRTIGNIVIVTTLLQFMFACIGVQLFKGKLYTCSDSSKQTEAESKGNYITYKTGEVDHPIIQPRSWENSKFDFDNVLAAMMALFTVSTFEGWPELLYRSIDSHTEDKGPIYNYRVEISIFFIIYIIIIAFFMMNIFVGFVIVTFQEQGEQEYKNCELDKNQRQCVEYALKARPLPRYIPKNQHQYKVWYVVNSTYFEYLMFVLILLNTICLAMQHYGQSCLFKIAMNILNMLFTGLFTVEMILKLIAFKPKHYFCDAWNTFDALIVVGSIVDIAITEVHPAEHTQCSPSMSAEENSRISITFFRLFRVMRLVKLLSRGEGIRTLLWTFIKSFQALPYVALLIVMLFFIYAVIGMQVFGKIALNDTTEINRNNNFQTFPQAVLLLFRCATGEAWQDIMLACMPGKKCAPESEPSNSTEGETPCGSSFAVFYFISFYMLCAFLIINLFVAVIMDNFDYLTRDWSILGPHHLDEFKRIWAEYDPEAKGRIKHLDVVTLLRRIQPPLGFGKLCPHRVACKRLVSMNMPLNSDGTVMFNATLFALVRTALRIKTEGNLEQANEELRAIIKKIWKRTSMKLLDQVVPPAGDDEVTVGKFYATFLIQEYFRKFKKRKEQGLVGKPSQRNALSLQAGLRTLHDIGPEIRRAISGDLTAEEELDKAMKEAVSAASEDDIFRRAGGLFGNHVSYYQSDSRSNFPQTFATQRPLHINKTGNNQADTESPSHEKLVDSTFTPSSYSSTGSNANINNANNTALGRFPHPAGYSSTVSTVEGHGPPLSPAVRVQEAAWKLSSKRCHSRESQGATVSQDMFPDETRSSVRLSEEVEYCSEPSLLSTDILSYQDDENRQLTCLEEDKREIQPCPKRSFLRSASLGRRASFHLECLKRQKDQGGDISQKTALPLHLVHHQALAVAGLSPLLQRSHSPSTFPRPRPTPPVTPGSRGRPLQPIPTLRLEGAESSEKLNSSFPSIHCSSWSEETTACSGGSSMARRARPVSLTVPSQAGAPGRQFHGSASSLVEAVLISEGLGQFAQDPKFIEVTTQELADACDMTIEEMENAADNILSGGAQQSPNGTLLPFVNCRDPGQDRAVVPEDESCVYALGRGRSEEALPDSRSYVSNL
T1 sequence (P54290 25-944 partner limits assumed, other chains not shown): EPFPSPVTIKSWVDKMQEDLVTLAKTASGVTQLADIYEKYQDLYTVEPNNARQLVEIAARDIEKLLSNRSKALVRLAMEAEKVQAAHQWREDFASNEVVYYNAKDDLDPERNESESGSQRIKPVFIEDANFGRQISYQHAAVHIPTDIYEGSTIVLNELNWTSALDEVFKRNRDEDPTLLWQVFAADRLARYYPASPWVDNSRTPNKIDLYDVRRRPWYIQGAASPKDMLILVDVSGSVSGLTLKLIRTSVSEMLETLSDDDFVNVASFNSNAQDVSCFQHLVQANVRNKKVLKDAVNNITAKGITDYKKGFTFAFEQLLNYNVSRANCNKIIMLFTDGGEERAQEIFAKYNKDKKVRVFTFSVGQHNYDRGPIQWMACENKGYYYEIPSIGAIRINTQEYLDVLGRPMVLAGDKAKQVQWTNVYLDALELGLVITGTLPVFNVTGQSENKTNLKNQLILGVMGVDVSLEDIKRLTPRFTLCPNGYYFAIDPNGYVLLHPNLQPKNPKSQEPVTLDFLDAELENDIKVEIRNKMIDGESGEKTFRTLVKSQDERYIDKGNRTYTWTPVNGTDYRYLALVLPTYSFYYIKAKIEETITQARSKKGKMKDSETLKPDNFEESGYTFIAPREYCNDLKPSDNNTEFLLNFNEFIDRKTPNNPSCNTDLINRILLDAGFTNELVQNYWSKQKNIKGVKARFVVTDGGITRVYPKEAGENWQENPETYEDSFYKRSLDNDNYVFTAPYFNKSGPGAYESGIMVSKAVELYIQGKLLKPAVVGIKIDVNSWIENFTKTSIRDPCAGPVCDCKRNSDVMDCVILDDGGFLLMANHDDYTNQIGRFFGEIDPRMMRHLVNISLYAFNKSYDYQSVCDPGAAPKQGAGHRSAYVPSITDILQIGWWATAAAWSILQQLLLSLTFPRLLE
T1 sequence (P54290 945-1091 partner limits assumed, other chains not shown): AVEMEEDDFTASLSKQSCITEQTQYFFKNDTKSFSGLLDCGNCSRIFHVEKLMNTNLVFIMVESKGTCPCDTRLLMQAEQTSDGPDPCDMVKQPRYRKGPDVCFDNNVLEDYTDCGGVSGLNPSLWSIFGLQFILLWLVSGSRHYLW

SMILES | IC50 (alpha1-adrenoceptor) | IC50 (Ca^2+ channel) | EC50 (guinea pig left atria) | Emax (guinea pig left atria)
COC(=O)C1=C(C)NC(C)=C([N+](=O)[O-])C1c1ccoc1CCCCCN1CCN(c2ccccc2OC)CC1 (stereo not shown) [Example 1, 1,4-Dihydro-4-(2-{5-[4-(2-methoxyphenyl)-1-piperazinyl]pentyl}-3-furanyl)-2,6-dimethyl-5-nitro-3-pyridinecarboxylic acid, methyl ester] | 130 nM | 600 nM | 5000 nM | 188%
COC(=O)C1=C(C)NC(C)=C([N+](=O)[O-])C1c1ccoc1CCCCCN1CCN(C(=O)c2ccco2)CC1 (stereo not shown) [Example 2] | 1900 nM | 1500 nM | 96000 nM | 144%
COC(=O)C1=C(C)NC(C)=C([N+](=O)[O-])C1c1ccccc1S(=O)(=O)CCCCN1CCN(c2ccccc2OC)CC1 (stereo not shown) [Example 3] | 63 nM | 240 nM | 1000 nM | 89%
COC(=O)C1=C(C)NC(C)=C([N+](=O)[O-])C1c1ccccc1[S+]([O-])CCCCN1CCN(c2ccccc2OC)CC1 (stereo not shown) [Example 4] | 20 nM | 890 nM | – | 43%
COC(=O)C1=C(C)NC(C)=C([N+](=O)[O-])C1c1ccccc1OCCCCCN1CCN(C(=O)c2ccco2)CC1 (stereo not shown) [Example 5] | 2200 nM | 680 nM | 3000 nM | 269%
COC(=O)C1=C(C)NC(C)=C([N+](=O)[O-])C1c1ccccc1OCCCCCN1CCC(c2ccccc2)CC1 (stereo not shown) [Example 6] | 900 nM | 360 nM | 2000 nM | 207%
COC(=O)C1=C(C)NC(C)=C([N+](=O)[O-])C1c1ccccc1OCCCCCN1CCN(c2ccc(Cl)nn2)CC1 (stereo not shown) [Example 7] | 1900 nM | 650 nM | 12000 nM | 149%
COC(=O)C1=C(C)NC(C)=C([N+](=O)[O-])C1c1ccccc1OCCCCCN1CCN(c2ccc(OC(C)C)nn2)CC1 (stereo not shown) [Example 8] | 15000 nM | 580 nM | 15000 nM | 113%
COC(=O)C1=C(C)NC(C)=C([N+](=O)[O-])C1c1ccccc1OCCCCCN1CCN(C(=O)C2COc3ccccc3O2)CC1 (stereo not shown) [Example 9] | 5200 nM | 950 nM | 53000 nM | 62%
COC(=O)C1=C(C)NC(C)=C([N+](=O)[O-])C1c1ccccc1OCCCCCN1CCN(c2cnccn2)CC1 (stereo not shown) [Example 10] | 7200 nM | 1200 nM | 2800 nM | 55%
CCCOc1cc(N2CCN(CCCCCOc3ccccc3C3C(C(=O)OC)=C(C)NC(C)=C3[N+](=O)[O-])CC2)ncn1 (stereo not shown) [Example 11] | 5300 nM | 360 nM | 43000 nM | 68%
COc1ccccc1N1CCN(CCCCOC(=O)C2=C(C)NC(C)=C([N+](=O)[O-])C2c2cccc3nonc23)CC1 (stereo not shown) [Example 51, 4-(4-Benzofurazanyl)-1,4-dihydro-2,6-dimethyl-5-nitro-3-pyridinecarboxylicacid, {4-[4-(2-methoxyphenyl)-1-piperazinyl]butyl} ester] | 120 nM | 110 nM | 11000 nM | 175%
COc1ccccc1N1CCN(CCCCOC(=O)C2=C(C)NC(C)=C([N+](=O)[O-])C2c2cccnc2)CC1 (stereo not shown) [Example 52] | 52 nM | 3900 nM | – | 35%
CC1=C(C(=O)OCCCCN2CCN(c3ncccn3)CC2)C(c2cccnc2)C([N+](=O)[O-])=C(C)N1 (stereo not shown) [Example 53, 1,4-Dihydro-2,6-dimethyl-5-nitro-4-(3-pyridinyl)-3-pyridinecarboxylic acid: {4-[4-(2-pyrimidinyl)-1-piperazinyl]butyl} ester] | 400 nM | 4400 nM | 25000 nM | 189%
CC1=C(C(=O)OCCCCN2CCN(c3ncccn3)CC2)C(c2cccc3nonc23)C([N+](=O)[O-])=C(C)N1 (stereo not shown) [Example 54] | 820 nM | 290 nM | > 100000 nM | 21%
